Series [1] is described as follows: Nucleotide hydrolysis activity. In kind it is biochemical. The text has this: In addition, the ability of small peptides such as EAK16 to self-assemble into membranes may be useful in origin of life studies related to cell membranes and cellular compartmentalization. […] This activity is probably due to the ability of lysine and glutamic acid side-chains to perform general acid and base catalysis.

In a further series the test system is PC12NGF. In words: Cell attachment to biopolymer sheets, normal or Ca++ and Mg++ free medium (Table 6). In kind it is cell-based, rat. Details: key: ++++: strong attachment; +++: moderate attachment; ++: weak attachment; +/−: little or no attachment. As for the experimental part: (§1) Cells were pretreated in serum-free medium containing 30 μg/ml cyclohexamide for 2 hours before introduction to the peptide membranes. The cells used for the calcium and magnesium-free condition were pre-equilibrated in Ca^++ and Mg^++ free medium containing 5 mM EDTA for 15 minutes before introduction to the peptide membranes. Cells were allowed to attach to the peptide membranes for 30 minutes, 1 and 8 hours at 37° C. The attached cells were shaken for […] on a rotary rocker at 60 r.p.m., then scored under phase contrast microscopy.

The test system of a further series is PC12. The series is described as above. In kind it is cell-based, rat. More on the design: key: ++++: strong attachment; +++: moderate attachment; ++: weak attachment; +/−: little or no attachment. As for the experimental part: as §1
In another series the test system is 3T3 fibroblast cells. Kind of series: Cell attachment to biopolymer sheets, with serum or serum-free + cyclohexamide (Table 5). It counts as cell-based, mouse. More on the design: key: ++++: strong attachment; +++: moderate attachment; ++: weak attachment; +/−: little or no attachment. The procedure:
3T3 fibroblast cells were introduced to membranes of RAD16 and EAK16 in normal serum-containing medium or in serum-free medium containing 30 μg/ml cyclohexamide (cells used for this condition were pretreated in this medium for 2 hours before plating). Cells were allowed to attach to the membranes for 30 minutes, 1 and 8 hours at 37° C. The attached cells were shaken for 10 minutes on a rotary rocker at 60 r.p.m., then scored under phase contrast microscopy. The decrease in cells attached to the membrane in the serum-free condition reflects cell loss due to serum deprivation.

Series [2] is described as follows: Ions tested for effectiveness at inducing membrane formation; conditions of membrane formation. In kind it is physicochemical. The procedure: Various metal cations were tested for effectiveness at inducing membrane formation from EAK16. […] The order of effectiveness of the monovalent cations appears to be Li^+>Na^+>K^+>Cs^+. Cs^+ produces the least amount of membranes and in addition, yields nonmembranous precipitates. The effectiveness of the monovalent cations appears to correlate inversely with the crystal radii of the ions: Li^+ (0.6 Å), Na^+ (0.95 Å), K^+ (1.33 Å), and Cs^+ (1.69 Å) (Pauling, 1960). A correlation is also seen with the hydrated radii of the ions: Li^+ (3.4 Å), Na^+ (2.76 Å), K^+ (2.32 Å), and Cs^+ (2.28 Å), and with the order of enthalpies of the monovalent cations (Pauling, 1960). It is not known at present if the monovalent metal cations act as a catalyst or if they are incorporated into the membrane. […] Thus, membrane formation appears to be independent of salt concentration over this wide range. Salt concentrations of less than 5 mM may also induce membrane formation, but at a slower rate. The initial concentration of the peptide is a significant factor in the size and thickness of the membrane formed. In general, the higher the peptide concentration, the higher the extent of membrane formation. Membranes can form from initial peptide concentrations as low as 0.5 mM or 1 mg/ml. However, membranes formed at higher initial peptide concentrations (about 10 mg/ml) are thicker and thus, likely to be stronger. Therefore, it is preferable when producing the membranes to add peptide to a salt solution, rather than to add salt to a peptide solution. Formation of the membranes is very fast, on the order of a few minutes, and seems to be irreversible (see below). The process is unaffected by pH≦12 (the peptides tend to precipitate out at pH above 12), and by temperature. The membranes can form at temperatures in the range of 4 to 90° C. Formation of the membranes is inhibited by the presence of divalent metal cations at concentrations equal to or greater than 100 μM, which promote unstructured aggregation rather than membrane formation, and by sodium dodecyl sulfate (SDS) at a concentration of at least 0.1%.

Residues, ends and D or L forms follow the SMILES beside them.

In the case of `CC(=O)N[C@@H](C)C(=O)N[C@@H](CCC(=O)O)C(=O)N[C@@H](C)C(=O)N[C@@H](CCC(=O)O)C(=O)N[C@@H](C)C(=O)N[C@@H](CCCCN)C(=O)N[C@@H](C)C(=O)N[C@@H](CCCCN)C(=O)N[C@@H](C)C(=O)N[C@@H](CCC(=O)O)C(=O)N[C@@H](C)C(=O)N[C@@H](CCC(=O)O)C(=O)N[C@@H](C)C(=O)N[C@@H](CCCCN)C(=O)N[C@@H](C)C(=O)N[C@@H](CCCCN)C(N)=O` [EAK16] (Ac-AEAEAKAKAEAEAKAK-NH2), the nucleotide hydrolysis activity result in series [1] was “partial nucleotide hydrolysis activity”. Besides, the cell attachment result with PC12NGF (30 min, Ca^++ & Mg^++ free, EDTA serum-free + Cyclohex) is listed as “++++”; with PC12NGF (30 min, Normal Ca^++ & Mg^++ serum-free + Cyclohex), “++++”; in the series on PC12NGF (60 min, Ca^++ & Mg^++ free, EDTA serum-free + Cyclohex), “++++”; with PC12NGF (60 min, Normal Ca^++ & Mg^++ serum-free + Cyclohex), “++++”; in the series on PC12 (PC12, 30 min, Ca^++ & Mg^++ free, EDTA serum-free + Cyclohex), “++++”; in the series with PC12 (PC12, 30 min, Normal Ca^++ & Mg^++ serum-free + Cyclohex), “++++”. Moreover, the cell attachment entry is listed as “++++” with PC12 (PC12, 60 min, Ca^++ & Mg^++ free, EDTA serum-free + Cyclohex); “++++” in the series with PC12 (PC12, 60 min, Normal Ca^++ & Mg^++ serum-free + Cyclohex); “++++” in the series on 3T3 fibroblast cells (3T3, 30 min, medium with serum, no cyclohexamide); “++++” with 3T3 fibroblast cells (3T3, 30 min, serum-free medium, + cyclohexamide); “++++” with 3T3 fibroblast cells (3T3, 60 min, medium with serum, no cyclohexamide); “++++” in the series on 3T3 fibroblast cells (3T3, 60 min, serum-free medium, + cyclohexamide). Further, the cell attachment result in the series on 3T3 fibroblast cells (3T3, 8 hrs, medium with serum, no cyclohexamide) is “++++”; in the series with 3T3 fibroblast cells (3T3, 8 hrs, serum-free medium, + cyclohexamide), “++”. Moreover, the “effect of divalent cations on membrane formation” value in series [2] is listed as “divalent cations primarily induce unstructured aggregates”. In addition, the “effect of monovalent metal cations on membrane formation” value in series [2] is reported as “monovalent metal cations induce membrane formation”. Also, the “order of effectiveness of the monovalent cations” value in series [2] is listed as “Li^+>Na^+>K^+>Cs^+”. For the same molecule, the “effect of anions and organic ions on membrane formation” value in series [2] (acetate, Cl^−, SO4^−2, PO4^−2, NH4^+ and Tris-Cl) is “not found to induce membrane formation”.
